TGI and GI50 data for ten molecules are collected here from PubChem BioAssay (NCI).

Assay in all cases: NCI-60 cell line screen, 48 h
In assay [1] the test system is T-47D breast.
The subject of assay [2] is HOP-92 NSCLC.
In assay [3] the test system is HCT-15 colon.
In assay [4] the test system is SNB-75 CNS.
The test system of assay [5] is HT29 colon.
For assay [6], the system named is OVCAR-5 ovarian.
For assay [7], the system named is RXF 393 renal.
Assay [8] deals with NCI-H23 lung.
The subject of assay [9] is MDA-MB-435.
The test system of assay [10] is NCI/ADR-RES ovarian.

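Assay format: 96-well plates, 48-hour exposure. GI50 = concentration required for 50% inhibition of growth. TGI: concentration producing complete growth inhibition.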 Where only a bound is given, the exact number is not on record here.

Consider `Cc1cc(C)c(S(=O)(=O)N[C@@H](/C=C(\Br)CO)C(C)C)c(C)c1`, for which the TGI in assay [1] is 68.4 µM; in assay [2] it was 75.5 µM; in [3], greater than 100 µM; in [4], greater than 100 µM; in [5], greater than 100 µM; in assay [6] it was greater than 100 µM. Further, the TGI in assay [7] was 63.3 µM; in assay [8], greater than 100 µM; in assay [9] it was 34.1 µM; in assay [10], greater than 100 µM.
Regarding `CC(NC1=CC(=O)c2ncccc2C1=O)C(O)c1ccccc1` (stereo not given), the TGI was found to be 56 µM in assay [1]; 27.9 µM in assay [2]; 17.3 µM in assay [3]; 9.6 µM in assay [4]; 28.3 µM in assay [5]; 29.3 µM in assay [6]. For the same molecule, the TGI in [7] is 22.2 µM; in assay [8] it was greater than 19.8 µM; in assay [9] it was 3.02 µM; in assay [10], 43.1 µM.
On to `Nc1nc(Cl)c(C=O)c(NCC2(CO)CC(CCc3ccccc3)C2)n1` (stereo not given), for which the TGI was found to be 31 µM in assay [1]; 4.46 µM in assay [2]; 13.8 µM in assay [3]; 37.5 µM in [4]; 27.7 µM in assay [5]; 33.3 µM in [6]. Besides, the TGI in [7] came out at 31.5 µM; in [8], 5.49 µM; in assay [9], 17.9 µM; in assay [10], 47.6 µM.
Regarding `COC(=O)c1ccc2c(c1)CC1(C2)Cc2cc3c(c(C(=O)OC)c2C1)CCCC3` (stereo not given), the TGI in assay [1], in assay [2], in assay [3], in [4], in assay [5] and in assay [6] was greater than 100 µM each time. Moreover, the TGI in [7], in assay [8], in assay [9] and in assay [10] was greater than 100 µM throughout.
As to `Cc1nc(-c2ccccc2)c(C)n2c1nc1ccccc12`, the TGI is 45.3 µM in assay [1]; 47.9 µM in assay [2]; 74.5 µM in assay [3]; 66.3 µM in assay [4]; greater than 100 µM in assay [5]; greater than 100 µM in assay [6]. The TGI turned out to be 88.9 µM in assay [7], 40.9 µM in assay [8], 59.5 µM in [9] and 69.7 µM in [10].
For the molecule `OC1c2ccccc2[C@@H]2[C@H]1[C@@H](c1ccccc1)C1(Cc3ccccc3C1O)[C@H]2c1ccccc1` (stereo not given in full), the TGI was determined as 22.5 µM in [1]; 12.6 µM in assay [2]; 15.1 µM in [3]; 21.5 µM in assay [4]; 6.87 µM in [5]; 23.2 µM in [6]. Moreover, the TGI in [7] stood at 4.83 µM; in [8] it was 18.4 µM; in assay [9], 7.73 µM; in [10] it was 16.6 µM.
In the case of `COc1ccc(/C=C2\CN(C(=O)CCN3CCC(=NO)CC3)C/C(=C\c3ccc(OC)cc3)C2=O)cc1`, the GI50 in assay [1] was 2.57 µM; in assay [2], 2.34 µM; in [3] it was 2.15 µM; in assay [4] it was 2.14 µM; in assay [5], 2.04 µM; in assay [6] it was 1.83 µM. Also, the GI50 was 1.68 µM in assay [7], 2.47 µM in assay [8], 1.76 µM in [9] and 3.72 µM in assay [10]. The TGI in assay [1] is 8.91 µM; in [2], 9.32 µM; in assay [3], 5.56 µM; in assay [4], 9.33 µM; in assay [5], 4.45 µM; in assay [6] it was 3.92 µM. Further, the TGI in assay [7] stood at 3.15 µM; in [8], 6.37 µM; in assay [9], 3.49 µM; in assay [10], 20.8 µM.
With `COC(=O)C1Cc2c([nH]c3ccccc23)C(c2cccc(O)c2)N1` (stereo not given), the TGI is greater than 100 µM in assay [1]; 79.9 µM in assay [2]; greater than 100 µM in assay [3]; 74.3 µM in [4]; 83.4 µM in assay [5]; 82.9 µM in assay [6]. The TGI in assay [7] was 55.4 µM; in [8], 96.8 µM; in assay [9], 36.6 µM; in [10], 49.2 µM.
Take `CC(CC(=O)CO[C@H]1[C@H](O)[C@@H](O)[C@@H](O)[C@@H]2NC(=O)c3c(cc4c(c3O)OCO4)[C@H]21)OC1OC(CO)C(O)C(O)C1O` (stereo not given in full): the TGI in [1] was determined as 0.894 µM; in [2] it was 4.57 µM; in assay [3] it was 3.43 µM; in assay [4], 0.884 µM; in [5], 2.32 µM; in assay [6], 5.7 µM. Also, the TGI in assay [7] was 1.8 µM; in [8], 3.07 µM; in [9] it was 4.5 µM; in assay [10], 3.97 µM.
With `Oc1c(C2=NNC(c3cccs3)C2)ccc2ccccc12` (stereo not given), the TGI in assay [1] is greater than 100 µM; in assay [2] it was 81.5 µM; in assay [3], greater than 100 µM; in assay [4], greater than 100 µM; in [5], 40 µM; in [6], greater than 100 µM. For the same molecule, the TGI was greater than 100 µM in assay [7], greater than 100 µM in [8], 40 µM in [9] and 82 µM in assay [10].
